According to patent EP4603105A1, “PHARMACEUTICAL COMPOSITION CONTAINING CYCLIC COMPOUND HAVING SELECTIVE KRAS INHIBITORY EFFECT AGAINST HRAS AND NRAS” (CHUGAI SEIYAKU KABUSHIKI KAISHA, priority 2022, dated 2024):
*1 amine or outer side, *2 acyl side, *3 side chain or, on linkers, in order; H or OH if unused. Where a SMILES comes first, the peptide text is derived from it. Bridges are numbered along the chain shown (N, C = ends). [ ]: non-standard residue; d: D form. The star is where a group is joined. hPhe(3-Cl-4-CF3) = N[C@@H](CCc1ccc(C(F)(F)F)c(Cl)c1)C(=O)O; X21 = CCCN([C@H](C(=O)[*:2])C1CCCC1)[*:1]; NMeGly(cPent) = CN[C@H](C(=O)O)C1CCCC1; NMeF = CN[C@@H](Cc1ccccc1)C(=O)O; NMeD = CN[C@@H](CC(=O)O)C(=O)O; NMeL = CN[C@@H](CC(C)C)C(=O)O; Morpholide = C1CN(*)CCO1; Ac5c = NC1(C(=O)O)CCCC1; Sar = CNCC(=O)O

Experiments:
[1] = target: GDP-bound NRAS wild-type protein (Homo sapiens, UniProt P01111); experiment: Binding to NRAS by surface plasmon resonance (SPR), KD and KD ratio to KRAS
Procedure, shortened: (§1)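 Captured GDP-RAS (~100–300 RU) was exposed to increasing compound concentrations, 75 s per step, in running buffer with 10 µM GDP, 10 mM MgCl2 and 4% DMSO at pH 7.4.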

HRAS wild-type protein = HRAS wild-type protein (Homo sapiens, UniProt P01112); experiment: Binding to HRAS by surface plasmon resonance (SPR), KD and KD ratio to KRAS
Procedure, shortened: as §1

[2] = system: human lung cancer strain NCI-H441; type: cell-based
Procedure, shortened: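 Step one: dispense the test compound in serial DMSO dilutions. Step three: add the reagent and measure […].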

[3] = ratio of KD for GDP-bound NRAS wild-type protein to KD for KRAS
[4] = ratio of KD for HRAS wild-type protein to KD for KRAS
[5] = ratio of the KD value with respect to GDP-bound NRAS wild-type protein to the KD value with respect to KRAS
[6] = ratio of the KD value with respect to HRAS wild-type protein to the KD value with respect to KRAS
[7] = ratio of KD value for GDP-bound NRAS wild-type protein to KD value for KRAS (SPR)
[8] = ratio of KD value for HRAS wild-type protein to KD value for KRAS (SPR)

GDP-bound NRAS wild-type protein, sequence (P01111 whole entry): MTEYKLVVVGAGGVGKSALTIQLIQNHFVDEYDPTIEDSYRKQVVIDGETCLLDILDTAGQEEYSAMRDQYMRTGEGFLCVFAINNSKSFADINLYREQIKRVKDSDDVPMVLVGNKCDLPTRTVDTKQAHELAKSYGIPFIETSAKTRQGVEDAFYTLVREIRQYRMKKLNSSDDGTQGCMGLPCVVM
HRAS wild-type protein, sequence (P01112 whole entry): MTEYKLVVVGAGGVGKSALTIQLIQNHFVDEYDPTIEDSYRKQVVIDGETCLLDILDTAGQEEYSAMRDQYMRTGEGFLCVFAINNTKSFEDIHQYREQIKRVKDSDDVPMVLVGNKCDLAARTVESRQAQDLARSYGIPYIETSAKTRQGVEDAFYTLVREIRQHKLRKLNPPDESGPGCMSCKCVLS

CCO[C@@H]1C[C@H]2C(=O)NC3(CCC3)C(=O)N(C)[C@@H](C3CCCC3)C(=O)N(C)[C@H](C(=O)N(C)CC)CC(=O)N(C)[C@@H](CC3CC3)C(=O)N[C@@H]([C@@H](C)CC)C(=O)N(C)CC(=O)N(C)[C@H]3C/C=C\CCN(C3=O)[C@@H](Cc3ccc(C(F)(F)F)cc3)C(=O)N(C)CC(=O)N[C@@H](CCc3cc(F)c(C(F)(F)F)c(F)c3)C(=O)N2C1 [PP1301]
NRAS /KRAS ([1]; ratio of KD with respect to GDP-bound NRAS wild-type protein to KD with respect to KRAS): A (a compound having 10 or more and less than 20 is denoted as A)
HRAS /KRAS (HRAS wild-type protein; ratio of KD with respect to HRAS wild-type protein to KD with respect to KRAS): A (a compound having 10 or more and less than 20 is denoted as A)
IC50 [2]: 0.0047 µM

CCCN1C(=O)CN(C)C(=O)CN(C)C(=O)[C@H]([C@@H](C)CC)NC(=O)[C@H](CC(C)C)N(C)C(=O)C[C@@H](C(=O)N2CCOCC2)N(C)C(=O)[C@H](C2CCCC2)N(C)C(=O)C2(CCCC2)NC(=O)[C@@H]2CCCN2C(=O)[C@H](CCc2ccc(C(F)(F)F)c(Cl)c2)NC(=O)CN(C)C(=O)[C@@H]1C1CCCC1 [PP0061] ([NMeL]I[Sar][Sar][X21][Sar][hPhe(3-Cl-4-CF3)]P[Ac5c][NMeGly(cPent)][NMeD]-Morpholide; lactam N-11)
NRAS /KRAS [1, 3]: B (a compound having 3 or more and less than 10 is denoted as B)
HRAS /KRAS (HRAS wild-type protein; [4]): C (A compound having a KD ratio of 0.1 or more and less than 3 is denoted as C)
IC50 [2]: 0.0844 µM

CCO[C@@H]1C[C@H]2C(=O)NC3(CC(C)(C)C3)C(=O)N(C)[C@@H](C3CCCC3)C(=O)N(C)[C@H](C(=O)N(C)CC)CC(=O)N(C)[C@@H]([C@@H](C)OC)C(=O)N[C@@H]([C@@H](C)CC)C(=O)N(C3CC3)CC(=O)N(C)[C@H]3C/C=C\CCN(C3=O)[C@@H](Cc3ccc(C)cc3)C(=O)N(C)CC(=O)N[C@@H](CCc3cc(F)c(C(F)(F)F)c(F)c3)C(=O)N2C1 [PP3184]
NRAS /KRAS [1, 3]: A (a compound having 10 or more and less than 20 is denoted as A)
HRAS /KRAS (HRAS wild-type protein; [4]): A (a compound having 10 or more and less than 20 is denoted as A)
IC50 [2]: 0.0304 µM

CCC[C@H]1C(=O)N[C@@H]([C@@H](C)CC)C(=O)N(C2CC2)CC(=O)N(C)[C@H]2C/C=C\CCN(C2=O)[C@@H](CC2CCC(F)(F)CC2)C(=O)N(C)CC(=O)N[C@@H](CCc2ccc(C(F)(F)F)c(OC)c2)C(=O)N2C[C@H](OCC)C[C@H]2C(=O)N(C)C2(CCC2)C(=O)N(C)[C@@H](C(CC)CC)C(=O)N(C)[C@H](C(=O)N(C)C)CC(=O)N1C [PP2349]
NRAS /KRAS [1, 5]: A (a compound having 10 or more and less than 20 is denoted as A)
HRAS /KRAS (HRAS wild-type protein; [6]): A (a compound having 10 or more and less than 20 is denoted as A)
IC50 [2]: 0.0732 µM

CCC[C@H]1C(=O)N[C@@H]([C@@H](C)CC)C(=O)N(C2CC2)CC(=O)N(C)[C@H]2C/C=C\CCN(C2=O)[C@@H](Cc2ccc(C)cc2)C(=O)N(C)CC(=O)N[C@@H](CCc2cc(C)c(C(F)F)c(C)c2)C(=O)N2C[C@H](OCC)C[C@H]2C(=O)NC2(CC(C)(C)C2)C(=O)N(C)[C@@H](C2CCCC2)C(=O)N(C)[C@H](C(=O)N(C)C)CC(=O)N1C [PP2873]
NRAS /KRAS [1, 3]: A (a compound having 10 or more and less than 20 is denoted as A)
HRAS /KRAS (HRAS wild-type protein; [4]): A (a compound having 10 or more and less than 20 is denoted as A)
IC50 [2]: 0.128 µM

CCO[C@@H]1C[C@H]2C(=O)NC3(CC(C)(C)C3)C(=O)N(C)[C@@H](C(CC)CC)C(=O)N(C)[C@H](C(=O)N(C)C)CC(=O)N(C)[C@@H](CC(C)C)C(=O)N[C@@H]([C@@H](C)CC)C(=O)N(C)CC(=O)N(C)[C@H]3C/C=C\CCN(C3=O)[C@@H](Cc3ccc(C(F)(F)F)cc3)C(=O)N(C)CC(=O)N[C@@H](CCc3cc(F)c(C(F)(F)F)c(F)c3)C(=O)N2C1 [PP2127]
NRAS /KRAS [1, 5]: AA (a compound having 20 or more is denoted as AA)
HRAS /KRAS (HRAS wild-type protein; [6]): A (a compound having 10 or more and less than 20 is denoted as A)
IC50 [2]: 0.0125 µM

CC[C@H](C)[C@@H]1NC(=O)[C@H](C)N(C)C(=O)C[C@@H](C(=O)N2CCOCC2)N(C)C(=O)[C@H](C2CCCC2)N(C)C(=O)C2(CCCC2)NC(=O)[C@@H]2CCCN2C(=O)[C@H](CCc2cc(F)c(C(F)(F)F)c(F)c2)NC(=O)CN(C)C(=O)[C@H](Cc2ccc(C(F)(F)F)cc2)N2CCCC[C@@H](C2=O)N(C)C(=O)CN(C)C1=O [PP0549]
NRAS /KRAS [1, 5]: C (A compound having a KD ratio of 0.1 or more and less than 3 is denoted as C)
HRAS /KRAS (HRAS wild-type protein; [6]): B (a compound having 3 or more and less than 10 is denoted as B)
IC50 [2]: 0.013 µM

CCO[C@@H]1C[C@H]2C(=O)NC3(CCC3)C(=O)N(C)[C@@H](C3CCCC3)C(=O)N(C)[C@H](C(=O)N(C)CC)CC(=O)N(C)[C@@H](CC)C(=O)N[C@@H]([C@@H](C)CC)C(=O)N(C)CC(=O)N(C)[C@H]3C/C=C\CCN(C3=O)[C@@H](CC3CCC(F)(F)CC3)C(=O)N(C)CC(=O)N[C@@H](CCc3cc(F)c(C(F)(F)F)c(F)c3)C(=O)N2C1 [PP1553]
NRAS /KRAS [1, 7]: A (a compound having 10 or more and less than 20 is denoted as A)
HRAS /KRAS (HRAS wild-type protein; [8]): A (a compound having 10 or more and less than 20 is denoted as A)
IC50 [2]: 0.0121 µM

CCCOC[C@H]1C(=O)N[C@@H]([C@@H](C)CC)C(=O)N(C)CC(=O)N(C)[C@H]2C/C=C\CCN(C2=O)[C@@H](Cc2ccc(C)cc2)C(=O)N(C)CC(=O)N[C@@H](CCc2cc(F)c(C(F)(F)F)c(F)c2)C(=O)N2C[C@H](CCC)C[C@H]2C(=O)NC2(CCCC2)C(=O)N(C)[C@@H](C2CCCC2)C(=O)N(C)[C@H](C(=O)N(C)C)CC(=O)N1C [PP2229]
NRAS /KRAS [1, 5]: A (a compound having 10 or more and less than 20 is denoted as A)
HRAS /KRAS (HRAS wild-type protein; [6]): A (a compound having 10 or more and less than 20 is denoted as A)
IC50 [2]: 0.0398 µM

CCC[C@H]1C(=O)N[C@@H]([C@@H](C)CC)C(=O)N2CCC[C@H]2C(=O)N(C)[C@H]2C/C=C\CCN(C2=O)[C@@H](Cc2ccc(C)cc2)C(=O)N(C)CC(=O)N[C@@H](CCc2ccc(C(F)(F)F)c(OC)c2)C(=O)N2C[C@H](OCC)C[C@H]2C(=O)N(C)C2(CCC2)C(=O)N(C)[C@@H](C2CCCC2)C(=O)N(C)[C@H](C(=O)N2CCCCC2)CC(=O)N1C [PP3100]
NRAS /KRAS [1, 3]: A (a compound having 10 or more and less than 20 is denoted as A)
HRAS /KRAS (HRAS wild-type protein; [4]): B (a compound having 3 or more and less than 10 is denoted as B)
IC50 [2]: 0.015 µM

CCO[C@@H]1C[C@H]2C(=O)NC3(CCC3)C(=O)N(C)[C@@H](C3CCCC3)C(=O)N(C)[C@H](C(=O)N3CCOCC3)CC(=O)N(C)[C@@H](COC)C(=O)N[C@@H]([C@@H](C)CC)C(=O)NCC(=O)N(C)[C@H]3CCCCCN(C3=O)[C@@H](Cc3ccc(C(F)(F)F)cc3)C(=O)N(C)CC(=O)N[C@@H](CCc3cc(F)c(C(F)(F)F)c(F)c3)C(=O)N2C1 [PP0858]
NRAS /KRAS [1, 3]: B (a compound having 3 or more and less than 10 is denoted as B)
HRAS /KRAS (HRAS wild-type protein; [4]): B (a compound having 3 or more and less than 10 is denoted as B)
IC50 [2]: 0.0525 µM

CCOC[C@H]1C(=O)N[C@@H]([C@@H](C)CC)C(=O)N(C)CC(=O)N(C)[C@H]2C/C=C\CCN(C2=O)[C@@H](Cc2ccc(C(F)(F)F)cc2)C(=O)N(C)CC(=O)N[C@@H](CCc2ccc(C(F)(F)F)c(OC)c2)C(=O)N2C[C@@H](C)C[C@H]2C(=O)NC2(CC(C)(C)C2)C(=O)N(C)[C@@H](C2CCCC2)C(=O)N(C)[C@H](C(=O)N(C)CC)CC(=O)N1C [PP1993]
NRAS /KRAS [1, 5]: A (a compound having 10 or more and less than 20 is denoted as A)
HRAS /KRAS (HRAS wild-type protein; [6]): A (a compound having 10 or more and less than 20 is denoted as A)
IC50 [2]: 0.0133 µM

CC[C@H](C)[C@@H]1NC(=O)[C@H](CC(C)C)N(C)C(=O)C[C@@H](C(=O)N2CCOCC2)N(C)C(=O)[C@H](C2CCCC2)N(C)C(=O)C2(CCCC2)NC(=O)[C@@H]2CCCN2C(=O)[C@H](CCc2ccc(C(F)(F)F)c(Cl)c2)NC(=O)CN(C)C(=O)[C@H](Cc2ccccc2)N(C)C(=O)CN(C)C(=O)CN(C)C1=O [PP0039] ([NMeL]I[Sar][Sar][NMeF][Sar][hPhe(3-Cl-4-CF3)]P[Ac5c][NMeGly(cPent)][NMeD]-Morpholide; lactam N-11)
NRAS /KRAS [1, 3]: C (A compound having a KD ratio of 0.1 or more and less than 3 is denoted as C)
HRAS /KRAS (HRAS wild-type protein; [4]): C (A compound having a KD ratio of 0.1 or more and less than 3 is denoted as C)
IC50 [2]: 0.0201 µM

CC[C@H](C)[C@@H]1NC(=O)[C@H](C2CC2)N(C)C(=O)C[C@@H](C(=O)N(C)C)N(C)C(=O)[C@H](C2CCCC2)N(C)C(=O)C2(CCC2)N(C)C(=O)[C@@H]2CCCN2C(=O)[C@H](CCc2cc(F)c(C(F)(F)F)c(F)c2)NC(=O)CN(C)C(=O)[C@H](Cc2ccc(C)cc2)N2CC/C=C\C[C@@H](C2=O)N(C)C(=O)CN(C)C1=O [PP1784]
NRAS /KRAS [1, 7]: A (a compound having 10 or more and less than 20 is denoted as A)
HRAS /KRAS (HRAS wild-type protein; [8]): B (a compound having 3 or more and less than 10 is denoted as B)
IC50 [2]: 0.0078 µM

CCCO[C@@H]1C[C@H]2C(=O)NC3(CC(C)(C)C3)C(=O)N(C)[C@@H](C3CCCC3)C(=O)N(C)[C@H](C(=O)N3CCCCC3)CC(=O)N(C)[C@H]3CCCc4ccc(cc4)C[C@@H](C(=O)N(C)CC(=O)N[C@@H](CCc4ccc(C(F)(F)F)c(OC)c4)C(=O)N2C1)N1CC/C=C\C[C@@H](C1=O)N(C)C(=O)CN(C)C(=O)[C@H]([C@@H](C)CC)NC3=O [PP3064]
NRAS /KRAS [1, 3]: B (a compound having 3 or more and less than 10 is denoted as B)
HRAS /KRAS (HRAS wild-type protein; [4]): B (a compound having 3 or more and less than 10 is denoted as B)
IC50 [2]: 0.0269 µM
